Patent US9770026B2, “Substituted pyrimidine compound and uses thereof” (Shenyang Sinochem Agrochemicals R&D Co., Ltd., priority 2012, dated 2017)

Columns and labels:
armyworm = test: bioactivity test against armyworm, airbrush spray; type: in vivo; settings: for pest or weed control at 600 µg/mL: 600 mg/L, read-out: Insecticidal activity against armyworm (%)
Diamond back moth = test: insecticidal activity against diamond back moth, airbrush spray; type: in vivo; settings: for pest or weed control at 600 µg/mL: 600 mg/L
Procedure, shortened: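 Airbrush leaf-disc spray test: both faces of 2 cm cabbage discs received 0.5 ml of test solution at 0.7 kg/cm^2. Solutions were made in acetone:methanol (1:1) and brought to concentration with 0.1% Tween 80 in water. Ten second-instar larvae per disc, triplicates, were held at 25° C and 60˜70% R.H., with mortality recorded at 72 hrs.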

wheat powdery mildew = test: protectant activity in vivo against wheat powdery mildew; settings: for pest or weed control at 400 µg/mL: read-out: control effect against wheat powdery mildew (%), 400 mg/L
corn rust = test: protectant activity in vivo against corn rust; settings: for pest or weed control at 400 µg/mL: read-out: control effect against corn rust (%), 400 mg/L
cucumber downy mildew = test: protectant activity in vivo against cucumber downy mildew; settings: for pest or weed control at 400 µg/mL: read-out: control effect against cucumber downy mildew (%), 400 mg/L; for pest or weed control at 100 ppm: read-out: protectant activity against cucumber downy mildew in vivo, 100 ppm; for pest or weed control at 400 ppm: read-out: protectant activity against cucumber downy mildew in vivo, 400 ppm
[1] = system: Green peach aphids (Myzus Persicae Sulzer); test: bioactivity test against green peach aphid, airbrush foliar spray; type: in vivo; settings: for pest or weed control at 600 µg/mL: 600 mg/L, contrastive test, read-out: Insecticidal activity against peach aphid (%)
Procedure, shortened: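 Aphids (15-30 per cabbage leaf disc) on moist filter paper were airbrush-sprayed at 10 psi, 0.5 mL, with compound from acetone:methanol (1:1) diluted in water with 0.1% tween 80. Held at 25±1 C, 60±5% RH; survivors counted after 48 hrs to give death rates.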

carmine spider mite = test: bioactivity test against carmine spider mite, airbrush spray; type: in vivo; settings: for pest or weed control at 600 µg/mL / Insecticidal activity against carmine spider mite (% ): contrastive test; for pest or weed control at 600 µg/mL: read-out: Insecticidal activity against carmine spider mite (% )
Procedure, shortened: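 Broadbean seedlings infested with adult mites were sprayed with compound (acetone/methanol stock diluted in 0.1% Tween 80 water) by airbrush at 0.7 kg/cm^2, 0.5 ml. Three replicates were run. Mortality was scored after 72 hrs.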

[2] = Triticum aestivum, 168 h, protectant activity
[3] = Zea mays, 168 h, protectant activity
[4] = Cucumis sativus, 168 h, protectant activity
[5] = Tetranychus cinnabarinus, 72 h, 600 mg/L
[6] = 600 ppm, mortality after 72 hrs
[7] = 10 ppm, death rate after 48 hrs
[8] = 100 ppm, death rate after 48 hrs
[9] = 600 ppm, death rate after 48 hrs
[10] = 100 ppm, mortality after 72 hrs

CCc1ncnc(NCc2ccc(Oc3c(Cl)cc([N+](=O)[O-])cc3Cl)cc2)c1Cl [CK66, reference compound]
0%: pest or weed control at 600 µg/mL (armyworm; 72 h) | pest or weed control at 600 µg/mL (Diamond back moth; 72 h) | pest or weed control at 400 µg/mL (wheat powdery mildew; [2]) | pest or weed control at 400 µg/mL (corn rust; [3]) | pest or weed control at 400 µg/mL (cucumber downy mildew; [4]) | pest or weed control at 600 µg/mL ([1]; Myzus persicae, foliar, 48 h) | pest or weed control at 600 µg/mL (carmine spider mite; [5])

FC(F)(F)c1cnc(Oc2ccc(CCNc3ncnc(Cl)c3Cl)cc2)c(Cl)c1 [CK72, reference compound]
50%: pest or weed control at 6.25 µg/mL (wheat powdery mildew; Triticum aestivum, 168 h, read-out: control effect against wheat powdery mildew (%), 6.25 mg/L, protectant activity)
40%: pest or weed control at 50 µg/mL (cucumber downy mildew; Cucumis sativus, 168 h, read-out: control effect against cucumber downy mildew (%), 50 mg/L, protectant activity)
13%: pest or weed control at 600 µg/mL (carmine spider mite; [5])
55%: pest or weed control at 600 µg/mL ([1]; Myzus persicae, foliar, 48 h)
71%: pest or weed control at 600 µg/mL (armyworm; 72 h)
100%: pest or weed control at 400 µg/mL (wheat powdery mildew; [2]) | pest or weed control at 400 µg/mL (corn rust; [3]) | pest or weed control at 100 µg/mL (cucumber downy mildew; Cucumis sativus, 168 h, read-out: control effect against cucumber downy mildew (%), 100 mg/L, protectant activity) | pest or weed control at 400 µg/mL (cucumber downy mildew; [4])
80%: pest or weed control at 100 µg/mL (corn rust; Zea mays, 168 h, read-out: control effect against corn rust (%), 100 mg/L, protectant activity)
0%: pest or weed control at 600 µg/mL (Diamond back moth; 72 h) | pest or weed control at 6.25 µg/mL (corn rust; Zea mays, 168 h, read-out: control effect against corn rust (%), 6.25 mg/L, protectant activity)
20%: pest or weed control at 25 µg/mL (corn rust; Zea mays, 168 h, read-out: control effect against corn rust (%), 25 mg/L, protectant activity) | pest or weed control at 25 µg/mL (cucumber downy mildew; Cucumis sativus, 168 h, read-out: control effect against cucumber downy mildew (%), 25 mg/L, protectant activity)
60%: pest or weed control at 25 µg/mL (wheat powdery mildew; Triticum aestivum, 168 h, read-out: control effect against wheat powdery mildew (%), 25 mg/L, protectant activity)
70%: pest or weed control at 100 µg/mL (wheat powdery mildew; Triticum aestivum, 168 h, read-out: control effect against wheat powdery mildew (%), 100 mg/L, protectant activity)

CCc1ncnc(NCCc2ccc(Oc3ncc(Cl)cc3Cl)cc2)c1Cl [Compound I-583]
100%: pest or weed control at 600 ppm (armyworm; 72 h, 600 ppm, mortality after 72 h) | pest or weed control at 600 ppm (Diamond back moth; 72 h, 600 ppm, mortality after 72 hrs, read-out: control (test results against diamond back moth)) | pest or weed control at 25 ppm (corn rust; Zea mays, 168 h, read-out: protectant activity against corn rust in vivo, 25 ppm) | pest or weed control at 100 ppm (corn rust; Zea mays, 168 h, read-out: protectant activity against corn rust in vivo, 100 ppm) | pest or weed control at 400 ppm (corn rust; Zea mays, 168 h, read-out: protectant activity against corn rust in vivo, 400 ppm) | pest or weed control at 25 ppm (cucumber downy mildew; Cucumis sativus, 168 h, read-out: protectant activity against cucumber downy mildew in vivo, 25 ppm) | pest or weed control at 100 ppm (cucumber downy mildew; Cucumis sativus, 168 h) | pest or weed control at 400 ppm (cucumber downy mildew; Cucumis sativus, 168 h) | pest or weed control at 100 ppm ([1]; Myzus persicae, foliar, 48 h, 100 ppm, death rate after 48 hrs) | pest or weed control at 600 ppm ([1]; Myzus persicae, foliar, 48 h, 600 ppm, death rate after 48 hrs) | pest or weed control at 600 ppm (carmine spider mite; Tetranychus cinnabarinus, 72 h, 600 ppm, mortality after 72 hrs)
80 to 99%: pest or weed control at 100 ppm (wheat powdery mildew; Triticum aestivum, 168 h, read-out: protectant activity against wheat powdery mildew in vivo, 100 ppm) | pest or weed control at 400 ppm (wheat powdery mildew; Triticum aestivum, 168 h, read-out: protectant activity against wheat powdery mildew in vivo, 400 ppm) | pest or weed control at 50 ppm (cucumber downy mildew; Cucumis sativus, 168 h, read-out: protectant activity against cucumber downy mildew in vivo, 50 ppm) | pest or weed control at 10 ppm ([1]; Myzus persicae, foliar, 48 h, 10 ppm, death rate after 48 hrs)

Cc1ncnc(NCCc2ccc(Oc3ccc(C(F)(F)F)cn3)cc2)c1Cl [Compound I-6732]
100%: control (test results against armyworm) (armyworm; 600 ppm, mortality after 72 h) | control (test results against diamond back moth) (Diamond back moth; [6]) | protectant activity against wheat powdery mildew in vivo (wheat powdery mildew; 400 ppm) | protectant activity against corn rust in vivo (corn rust; 100 ppm) | protectant activity against corn rust in vivo (corn rust; 400 ppm) | protectant activity against cucumber downy mildew in vivo (cucumber downy mildew; 25 ppm) | protectant activity against cucumber downy mildew in vivo (cucumber downy mildew; 100 ppm) | protectant activity against cucumber downy mildew in vivo (cucumber downy mildew; 400 ppm) | control (test results against green peach aphid) [1, 7] | control (test results against green peach aphid) [1, 8] | control (test results against green peach aphid) [1, 9] | control against carmine spider mite (carmine spider mite; [6]) | pest or weed control at 100 ppm (carmine spider mite; Tetranychus cinnabarinus, 72 h, 100 ppm, mortality after 72 hrs)
80 to 99%: pest or weed control at 6.25 ppm (corn rust; Zea mays, 168 h, read-out: protectant activity against corn rust in vivo, 6.25 ppm)

CCc1ncnc(NCCc2ccc(Oc3ccc(C(F)(F)F)cn3)cc2)c1Cl [Compound I-6740]
80 to 99%: pest or weed control at 10 ppm (carmine spider mite; Tetranychus cinnabarinus, 72 h, 10 ppm, mortality after 72 hrs)
85%: Insecticidal activity against carmine spider mite (% ) (carmine spider mite; 10 mg/L)
100%: control (test results against armyworm) (armyworm; 100 ppm, mortality after 72 h) | control (test results against armyworm) (armyworm; 600 ppm, mortality after 72 h) | control (test results against diamond back moth) (Diamond back moth; [10]) | control (test results against diamond back moth) (Diamond back moth; [6]) | protectant activity against wheat powdery mildew in vivo (wheat powdery mildew; 25 ppm) | protectant activity against wheat powdery mildew in vivo (wheat powdery mildew; 100 ppm) | protectant activity against wheat powdery mildew in vivo (wheat powdery mildew; 400 ppm) | protectant activity against corn rust in vivo (corn rust; 100 ppm) | protectant activity against corn rust in vivo (corn rust; 400 ppm) | pest or weed control at 100 ppm (cucumber downy mildew; Cucumis sativus, 168 h) | pest or weed control at 400 ppm (cucumber downy mildew; Cucumis sativus, 168 h) | control (test results against green peach aphid) ([1]; 5 ppm, death rate after 48 hrs) | control (test results against green peach aphid) [1, 7] | control (test results against green peach aphid) [1, 8] | control (test results against green peach aphid) [1, 9] | Insecticidal activity against carmine spider mite (% ) (carmine spider mite; 100 mg/L) | Insecticidal activity against carmine spider mite (% ) (carmine spider mite; 600 mg/L) | control against carmine spider mite (carmine spider mite; [10]) | control against carmine spider mite (carmine spider mite; [6])
